For data set [1], the system named is MCF-7 breast cancer cell line. Put plainly: MTT antiproliferative assay, MCF-7. Particulars: for IC50: Homo sapiens, MCF7, MCF-7, MTT assay. It is filed as cell-based.
Experimental: (§1) The antiproliferative activity and cytotoxicity of DHA-5-methylisatin hybrids 6a–c and 7a–m against MCF-7, MDA-MB-231, MCF-7/ADR, and MDA-MB-231/ADR (Purchased from Procell) breast cancer cell lines as well as MCF-10A were assessed by 3-(4,5-dimethylthiazol-2-yl)-2,5-diphenyltetrazolium bromide (MTT) assay.
(§2) MCF-7, MDA-MB-231, MCF-7/ADR, and MDA-MB-231/ADR breast cancer cell lines (2 × 10^3) were plated in each well of a 96-well plate and were allowed to adhere and spread for 24 h. The dihydroartemisinin-5-methylisatin hybrids 6a–e and 7a–m were added to a final concentration of 100 µM, and the cells were cultured for 24 h at 37 °C. 3-(4,5-dimethyl-2-thiazolyl)-2,5-diphenyltetrazolium bromide (MTT) solution (10 µL) was added to each well, and the cultures were incubated for an additional 4 h. A further 100 µL of MTT solution was added and incubation continued overnight. The absorbance at 540 nm was determined in each well with a 96-well plate reader. The growth of the treated cells was compared with that of untreated cells.
Data set [2] in a line: MTT cytotoxicity assay, MCF-10A. Conditions: human, MCF-10A normal breast cells.
Experimental: as §1, §2
Data set [3] has as its system MCF-7/ADR breast cancer cell line. Put plainly: MTT antiproliferative assay, MCF-7/ADR. It is filed as cell-based. Particulars: Homo sapiens, NCI/ADR-RES, MCF-7/ADR (drug-resistant).
Experimental: as §1, §2
The test system of data set [4] is MDA-MB-231/ADR breast cancer cell line. Kind of data set: MTT antiproliferative assay, MDA-MB-231/ADR. Particulars: Homo sapiens, MDA-MB-231/ADR (drug-resistant). It is filed as cell-based.
Experimental: as §1, §2
For data set [5], the system named is MDA-MB-231 breast cancer cell line. Kind of data set: MTT antiproliferative assay, MDA-MB-231. It is filed as cell-based. Particulars: for IC50: Homo sapiens, MDA-MB-231, MTT assay.
Experimental: as §1, §2

Turning to `COc1cccc2c1C(=O)c1c(O)c3c(c(O)c1C2=O)C[C@@](O)(C(=O)CO)C[C@@H]3O[C@H]1C[C@H](N)[C@H](O)[C@H](C)O1` [ADR, Adriamycin, reference compound], the half-inhibitory concentration (IC50) is 18.9 µM in data set [1], greater than 100 µM in data set [3] and greater than 100 µM in data set [4]. The “SI1: selectivity index IC50(MCF-10A)/IC50(MCF-7)” value in data set [1] was 3.64. In data set [2], this compound came in with an IC50 at 24 h of 68.8 µM. The “SI2: selectivity index IC50(MCF-10A)/IC50(MDA-MB-231)” value in data set [5] turned out to be 14.76.
In the case of `C[C@@H]1CC[C@H]2[C@@H](C)C(=O)O[C@@H]3O[C@@]4(C)CC[C@@H]1[C@]32OO4` [ART, Artemisinin], the “SI1: selectivity index IC50(MCF-10A)/IC50(MCF-7)” value in data set [1] was greater than 1.14. This compound returned an IC50 at 24 h in data set [2] greater than 100 µM. In addition, the IC50 in data set [3] and in data set [4] was greater than 100 µM in each case. Besides, the “SI2: selectivity index IC50(MCF-10A)/IC50(MDA-MB-231)” value in data set [5] is on record as greater than 1.38.
As to `C[C@H]1[C@@H](O)O[C@@H]2O[C@@]3(C)CC[C@H]4[C@H](C)CC[C@@H]1[C@@]24OO3` [DHA, Dihydroartemisinin], the “SI1: selectivity index IC50(MCF-10A)/IC50(MCF-7)” value in data set [1] is given as greater than 1.36. The half-maximal inhibitory concentration (IC50) at 24 h in data set [2] is greater than 100 µM. The IC50 in data set [3] is 79.1 µM. Further, in data set [5], the “SI2: selectivity index IC50(MCF-10A)/IC50(MDA-MB-231)” value is on record as greater than 1.43.
For `Cc1ccc2c(c1)C(=O)C(=O)N2CCOC1O[C@@H]2O[C@@]3(C)CC[C@H]4[C@H](C)CC[C@@H]([C@H]1C)[C@@]24OO3` (stereo partly drawn) [Hybrid 6a, 5-Methyl-1-(2-(((3R,5aS,6R,8aS,9R,12R,12aR)-3,6,9-trimethyldecahydro-12H-3,12-epoxy[1,2]dioxepino[4,3-i]isochromen-10-yl)oxy)ethyl)indoline-2,3-dione], the IC50 in data set [1] turned out to be 31.7 µM; in data set [3], 25.3 µM; in data set [4] it was 26.9 µM; in data set [5], 29.1 µM. In addition, in data set [1], the “SI1: selectivity index IC50(MCF-10A)/IC50(MCF-7)” value was greater than 3.15. In data set [2], this compound showed an IC50 at 24 h greater than 100 µM. In data set [5], the “SI2: selectivity index IC50(MCF-10A)/IC50(MDA-MB-231)” value was greater than 3.43.
`Cc1ccc2c(c1)C(=O)C(=O)N2CCCOC1O[C@@H]2O[C@@]3(C)CC[C@H]4[C@H](C)CC[C@@H]([C@H]1C)[C@@]24OO3` (stereo partly drawn) [Hybrid 6b, 5-Methyl-1-(3-(((3R,5aS,6R,8aS,9R,12R,12aR)-3,6,9-trimethyldecahydro-12H-3,12-epoxy[1,2]dioxepino[4,3-i]isochromen-10-yl)oxy)propyl)indoline-2,3-dione]: the IC50 in data set [1] is greater than 100 µM; in data set [3] it was 87.4 µM; in data set [4] it was greater than 100 µM; in data set [5], greater than 100 µM. The compound further displayed an IC50 at 24 h in data set [2] greater than 100 µM.
Take `Cc1ccc2c(c1)C(=O)C(=O)N2CCCCOC1O[C@@H]2O[C@@]3(C)CC[C@H]4[C@H](C)CC[C@@H]([C@H]1C)[C@@]24OO3` (stereo partly drawn) [Hybrid 6c, 5-Methyl-1-(4-(((3R,5aS,6R,8aS,9R,12R,12aR)-3,6,9-trimethyldecahydro-12H-3,12-epoxy[1,2]dioxepino[4,3-i]isochromen-10-yl)oxy)butyl)indoline-2,3-dione]: the IC50 was determined as 59.7 µM in data set [1], 49.9 µM in data set [3], 44.5 µM in data set [4] and 42.3 µM in data set [5]. For the same compound, the “SI1: selectivity index IC50(MCF-10A)/IC50(MCF-7)” value in data set [1] was greater than 1.67. Moreover, the 50% inhibitory concentration (IC50) at 24 h in data set [2] was greater than 100 µM. In data set [5], the “SI2: selectivity index IC50(MCF-10A)/IC50(MDA-MB-231)” value was greater than 2.36.
As to `Cc1ccc2c(c1)C(=NO)C(=O)N2CCCOC1O[C@@H]2O[C@@]3(C)CC[C@H]4[C@H](C)CC[C@@H]([C@H]1C)[C@@]24OO3` (stereo partly drawn) [Hybrid 7b, 3-(Hydroxyimino)-5-methyl-1-(3-(((3R,5aS,6R,8aS,9R,12R,12aR)-3,6,9-trimethyldecahydro-12H-3,12-epoxy[1,2]dioxepino[4,3-i]isochromen-10-yl)oxy)propyl)indolin-2-one], the half-maximal inhibitory concentration (IC50) in data set [1] came out at 30.3 µM; in data set [3], 28.7 µM; in data set [4] it was 36.4 µM; in data set [5], 42.6 µM. In addition, the “SI1: selectivity index IC50(MCF-10A)/IC50(MCF-7)” value in data set [1] is given as greater than 3.30. The half-inhibitory concentration (IC50) at 24 h in data set [2] is greater than 100 µM. Also, in data set [5], the “SI2: selectivity index IC50(MCF-10A)/IC50(MDA-MB-231)” value was greater than 2.34.
In the case of `Cc1ccc2c(c1)C(=NO)C(=O)N2CCCCOC1O[C@@H]2O[C@@]3(C)CC[C@H]4[C@H](C)CC[C@@H]([C@H]1C)[C@@]24OO3` (stereo partly drawn) [Hybrid 7c, 3-(Hydroxyimino)-5-methyl-1-(4-(((3R,5aS,6R,8aS,9R,12R,12aR)-3,6,9-trimethyldecahydro-12H-3,12-epoxy[1,2]dioxepino[4,3-i]isochromen-10-yl)oxy)butyl)indolin-2-one], the IC50 in data set [1] turned out to be 22.1 µM; in data set [3], 23.4 µM; in data set [4] it was 28.5 µM; in data set [5], 26.7 µM. Further, in data set [1], the “SI1: selectivity index IC50(MCF-10A)/IC50(MCF-7)” value was greater than 4.52. For the same compound, the concentration for half-maximal inhibition (IC50) at 24 h in data set [2] was greater than 100 µM. Further, the “SI2: selectivity index IC50(MCF-10A)/IC50(MDA-MB-231)” value in data set [5] is recorded as greater than 3.83.
On to `Cc1ccc2c(c1)C(=NNC(N)=O)C(=O)N2CCOC1O[C@@H]2O[C@@]3(C)CC[C@H]4[C@H](C)CC[C@@H]([C@H]1C)[C@@]24OO3` (stereo partly drawn) [Hybrid 7d, 2-(5-Methyl-2-oxo-1-(2-(((3R,5aS,6R,8aS,9R,12R,12aR)-3,6,9-trimethyldecahydro-12H-3,12-epoxy[1,2]dioxepino[4,3-i]isochromen-10-yl)oxy)ethyl)indolin-3-ylidene)hydrazine-1-carboxamide], for which the IC50 in data set [1] came to 27.2 µM; in data set [3], 33.3 µM; in data set [4] it was 21.6 µM; in data set [5] it was 19.7 µM. Besides, the “SI1: selectivity index IC50(MCF-10A)/IC50(MCF-7)” value in data set [1] is on record as greater than 3.67. The compound also registered an IC50 at 24 h in data set [2] greater than 100 µM. The “SI2: selectivity index IC50(MCF-10A)/IC50(MDA-MB-231)” value in data set [5] was greater than 5.07.
Turning to `Cc1ccc2c(c1)C(=NNC(N)=O)C(=O)N2CCCCOC1O[C@@H]2O[C@@]3(C)CC[C@H]4[C@H](C)CC[C@@H]([C@H]1C)[C@@]24OO3` (stereo partly drawn) [Hybrid 7e, 2-(5-Methyl-2-oxo-1-(4-(((3R,5aS,6R,8aS,9R,12R,12aR)-3,6,9-trimethyldecahydro-12H-3,12-epoxy[1,2]dioxepino[4,3-i]isochromen-10-yl)oxy)butyl)indolin-3-ylidene)hydrazine-1-carboxamide], the half-maximal inhibitory concentration (IC50) was 39 µM in data set [1], 42.1 µM in data set [3], 34.5 µM in data set [4] and 31.2 µM in data set [5]. Further, the “SI1: selectivity index IC50(MCF-10A)/IC50(MCF-7)” value in data set [1] is recorded as greater than 2.56. Also, in data set [2], the 50% inhibitory concentration (IC50) at 24 h was greater than 100 µM. For the same compound, the “SI2: selectivity index IC50(MCF-10A)/IC50(MDA-MB-231)” value in data set [5] is reported as greater than 3.20.
As to `Cc1ccc2c(c1)C(=NNC(N)=S)C(=O)N2CCCOC1O[C@@H]2O[C@@]3(C)CC[C@H]4[C@H](C)CC[C@@H]([C@H]1C)[C@@]24OO3` (stereo partly drawn) [Hybrid 7f, 2-(5-Methyl-2-oxo-1-(3-(((3R,5aS,6R,8aS,9R,12R,12aR)-3,6,9-trimethyldecahydro-12H-3,12-epoxy[1,2]dioxepino[4,3-i]isochromen-10-yl)oxy)propyl)indolin-3-ylidene)hydrazine-1-carbothioamide], the IC50 was found to be 46.7 µM in data set [1], 36.4 µM in data set [3], 51.1 µM in data set [4] and 48.2 µM in data set [5]. Also, in data set [1], the “SI1: selectivity index IC50(MCF-10A)/IC50(MCF-7)” value is on record as greater than 2.14. For the same compound, the half-maximal inhibitory concentration (IC50) at 24 h in data set [2] is greater than 100 µM. In data set [5], the “SI2: selectivity index IC50(MCF-10A)/IC50(MDA-MB-231)” value is greater than 2.07.
As for `Cc1ccc2c(c1)C(=NNC(N)=S)C(=O)N2CCCCOC1O[C@@H]2O[C@@]3(C)CC[C@H]4[C@H](C)CC[C@@H]([C@H]1C)[C@@]24OO3` (stereo partly drawn) [Hybrid 7g, 2-(5-Methyl-2-oxo-1-(4-(((3R,5aS,6R,8aS,9R,12R,12aR)-3,6,9-trimethyldecahydro-12H-3,12-epoxy[1,2]dioxepino[4,3-i]isochromen-10-yl)oxy)butyl)indolin-3-ylidene)hydrazine-1-carbothioamide], the IC50 is 28.9 µM in data set [1], 30.3 µM in data set [3], 40.6 µM in data set [4] and 35.1 µM in data set [5]. Moreover, the “SI1: selectivity index IC50(MCF-10A)/IC50(MCF-7)” value in data set [1] is listed as greater than 3.46. In data set [2], this compound returned a concentration for half-maximal inhibition (IC50) at 24 h greater than 100 µM. Moreover, in data set [5], the “SI2: selectivity index IC50(MCF-10A)/IC50(MDA-MB-231)” value is greater than 2.84.
In the case of `CCON=C1C(=O)N(CCOC2O[C@@H]3O[C@@]4(C)CC[C@H]5[C@H](C)CC[C@@H]([C@H]2C)[C@@]35OO4)c2ccc(C)cc21` (stereo partly drawn) [Hybrid 7i, 3-(Ethoxyimino)-5-methyl-1-(2-(((3R,5aS,6R,8aS,9R,12R,12aR)-3,6,9-trimethyldecahydro-12H-3,12-epoxy[1,2]dioxepino[4,3-i]isochromen-10-yl)oxy)ethyl)indolin-2-one], the IC50 turned out to be 69.3 µM in data set [1], 61.8 µM in data set [3], 72.7 µM in data set [4] and 70.4 µM in data set [5]. Besides, the “SI1: selectivity index IC50(MCF-10A)/IC50(MCF-7)” value in data set [1] is greater than 1.44. In data set [2], this compound yielded an IC50 at 24 h greater than 100 µM. In addition, the “SI2: selectivity index IC50(MCF-10A)/IC50(MDA-MB-231)” value in data set [5] was greater than 1.42.
In the case of `Cc1ccc2c(c1)C(=NOCc1ccccc1)C(=O)N2CCOC1O[C@@H]2O[C@@]3(C)CC[C@H]4[C@H](C)CC[C@@H]([C@H]1C)[C@@]24OO3` (stereo partly drawn) [Hybrid 7k, 3-((Benzyloxy)imino)-5-methyl-1-(2-(((3R,5aS,6R,8aS,9R,12R,12aR)-3,6,9-trimethyldecahydro-12H-3,12-epoxy[1,2]dioxepino[4,3-i]isochromen-10-yl)oxy)ethyl)indolin-2-one], the IC50 in data set [1], in data set [3], in data set [4] and in data set [5] was greater than 100 µM each time. This compound came in with an IC50 at 24 h in data set [2] greater than 100 µM.
Consider `Cc1ccc2c(c1)C(=NOCc1ccccc1)C(=O)N2CCCCOC1O[C@@H]2O[C@@]3(C)CC[C@H]4[C@H](C)CC[C@@H]([C@H]1C)[C@@]24OO3` (stereo partly drawn) [Hybrid 7m, 3-((Benzyloxy)imino)-5-methyl-1-(4-(((3R,5aS,6R,8aS,9R,12R,12aR)-3,6,9-trimethyldecahydro-12H-3,12-epoxy[1,2]dioxepino[4,3-i]isochromen-10-yl)oxy)butyl)indolin-2-one], for which the IC50 in data set [1], in data set [3], in data set [4] and in data set [5] was greater than 100 µM each time. In data set [2], this compound displayed an IC50 at 24 h greater than 100 µM.

Source of the values: PMC9695041, “The Anti-Breast Cancer Activity of Dihydroartemisinin-5-methylisatin Hybrids Tethered via Different Carbon Spacers” (Molecules, 2022).
